Results on five compounds are retold here after ChEMBL document CHEMBL5465560, “Selectivity Literature for EUbOPEN Chemogenomic Library” (2024).

The target in assay [1] is T1, Mitogen-activated protein kinase kinase kinase 6 (Homo sapiens) (UniProt O95382).
T1 sequence (whole entry): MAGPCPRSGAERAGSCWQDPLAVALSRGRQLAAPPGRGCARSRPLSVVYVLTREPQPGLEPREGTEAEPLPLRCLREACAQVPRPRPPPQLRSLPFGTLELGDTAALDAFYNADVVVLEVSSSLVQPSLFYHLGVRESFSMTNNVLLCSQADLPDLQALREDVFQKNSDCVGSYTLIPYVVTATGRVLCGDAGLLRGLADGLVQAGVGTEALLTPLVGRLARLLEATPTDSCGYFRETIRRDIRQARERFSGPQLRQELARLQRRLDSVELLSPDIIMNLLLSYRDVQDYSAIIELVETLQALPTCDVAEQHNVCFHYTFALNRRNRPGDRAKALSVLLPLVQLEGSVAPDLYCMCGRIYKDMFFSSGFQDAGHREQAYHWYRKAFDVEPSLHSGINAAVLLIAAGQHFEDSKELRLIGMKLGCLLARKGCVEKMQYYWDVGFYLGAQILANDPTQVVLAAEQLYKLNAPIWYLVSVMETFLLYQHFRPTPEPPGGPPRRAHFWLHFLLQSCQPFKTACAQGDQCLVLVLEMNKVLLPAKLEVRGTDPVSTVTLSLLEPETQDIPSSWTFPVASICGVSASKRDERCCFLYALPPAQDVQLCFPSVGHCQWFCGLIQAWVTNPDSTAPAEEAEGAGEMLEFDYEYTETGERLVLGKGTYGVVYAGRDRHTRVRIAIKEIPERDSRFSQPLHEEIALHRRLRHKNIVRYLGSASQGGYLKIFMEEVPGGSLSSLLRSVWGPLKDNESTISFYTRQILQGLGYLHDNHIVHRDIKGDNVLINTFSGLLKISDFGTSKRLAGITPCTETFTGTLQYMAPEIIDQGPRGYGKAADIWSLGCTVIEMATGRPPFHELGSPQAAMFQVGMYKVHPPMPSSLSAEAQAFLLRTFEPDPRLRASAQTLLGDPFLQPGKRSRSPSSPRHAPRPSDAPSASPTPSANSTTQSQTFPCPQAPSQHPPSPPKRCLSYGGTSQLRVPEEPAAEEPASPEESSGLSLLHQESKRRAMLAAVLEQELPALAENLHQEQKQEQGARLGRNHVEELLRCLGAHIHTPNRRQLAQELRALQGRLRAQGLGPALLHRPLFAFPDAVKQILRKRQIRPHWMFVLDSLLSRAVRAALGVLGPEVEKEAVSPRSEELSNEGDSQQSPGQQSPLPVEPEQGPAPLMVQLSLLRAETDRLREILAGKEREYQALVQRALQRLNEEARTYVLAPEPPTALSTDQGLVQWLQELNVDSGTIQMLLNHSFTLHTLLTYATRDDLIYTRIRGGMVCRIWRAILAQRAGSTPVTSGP
Put plainly: Selectivity interaction (Ambit KINOMEscan and KiNATiv profiling in Jurkat cells) EUB0000090b MAP3K6. It is filed as cell-based. Conditions: at 1 µM.

For assay [2], the target named is T2, Dual serine/threonine and tyrosine protein kinase (Homo sapiens) (UniProt Q6XUX3).
T2 sequence (whole entry): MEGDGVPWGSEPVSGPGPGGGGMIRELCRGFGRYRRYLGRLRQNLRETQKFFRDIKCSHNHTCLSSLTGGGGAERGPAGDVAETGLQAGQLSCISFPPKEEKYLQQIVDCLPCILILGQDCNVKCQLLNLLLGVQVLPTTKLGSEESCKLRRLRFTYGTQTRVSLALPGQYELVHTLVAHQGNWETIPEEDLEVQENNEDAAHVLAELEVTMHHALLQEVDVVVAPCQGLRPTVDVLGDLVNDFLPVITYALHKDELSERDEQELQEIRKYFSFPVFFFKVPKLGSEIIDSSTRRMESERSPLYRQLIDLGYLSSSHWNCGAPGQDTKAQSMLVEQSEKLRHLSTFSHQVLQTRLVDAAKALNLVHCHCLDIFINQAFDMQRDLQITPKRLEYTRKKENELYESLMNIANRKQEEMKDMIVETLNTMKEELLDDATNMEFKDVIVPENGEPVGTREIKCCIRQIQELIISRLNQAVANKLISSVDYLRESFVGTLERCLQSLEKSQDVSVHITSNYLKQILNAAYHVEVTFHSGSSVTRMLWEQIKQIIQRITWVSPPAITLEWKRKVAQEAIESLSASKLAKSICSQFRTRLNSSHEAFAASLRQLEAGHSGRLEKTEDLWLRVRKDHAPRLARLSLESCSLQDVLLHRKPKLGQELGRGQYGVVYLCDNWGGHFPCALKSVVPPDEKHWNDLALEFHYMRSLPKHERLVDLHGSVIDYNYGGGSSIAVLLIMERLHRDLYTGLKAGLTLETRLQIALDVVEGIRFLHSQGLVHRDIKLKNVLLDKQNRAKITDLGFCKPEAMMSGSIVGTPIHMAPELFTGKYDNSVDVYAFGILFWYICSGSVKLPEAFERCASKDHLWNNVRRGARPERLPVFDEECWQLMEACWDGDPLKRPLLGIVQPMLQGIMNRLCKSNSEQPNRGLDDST
Put plainly: Selectivity interaction (KinomeScan (DiscoverX)) EUB0000695a DSTYK. The settings on record: at 100 nM.

For assay [3], the target named is Chromatin remodeling regulator CECR2 (Homo sapiens, UniProt Q9BXF3). Put plainly: Selectivity interaction (Human bromodomain panel (DSF assay)) EUB0000233b CECR2.
Assay [4] addresses T3, Membrane-associated tyrosine- and threonine-specific cdc2-inhibitory kinase (Homo sapiens) (UniProt Q99640).
T3 sequence (whole entry): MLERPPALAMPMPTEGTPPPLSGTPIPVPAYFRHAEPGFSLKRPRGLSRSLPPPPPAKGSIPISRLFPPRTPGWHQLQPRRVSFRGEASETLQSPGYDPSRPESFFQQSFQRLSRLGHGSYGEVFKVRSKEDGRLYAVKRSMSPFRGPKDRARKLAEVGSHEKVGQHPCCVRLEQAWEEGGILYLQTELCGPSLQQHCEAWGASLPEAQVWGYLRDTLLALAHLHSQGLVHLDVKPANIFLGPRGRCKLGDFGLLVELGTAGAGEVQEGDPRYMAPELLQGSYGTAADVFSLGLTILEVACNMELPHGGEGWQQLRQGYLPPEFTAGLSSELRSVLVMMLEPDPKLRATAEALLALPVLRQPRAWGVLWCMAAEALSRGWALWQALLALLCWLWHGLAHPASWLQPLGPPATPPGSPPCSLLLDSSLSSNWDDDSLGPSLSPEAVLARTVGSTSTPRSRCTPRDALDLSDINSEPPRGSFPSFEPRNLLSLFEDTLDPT
Put plainly: Selectivity interaction (Kinase panel (DSF assay)) EUB0001559a PKMYT1.

The target in assay [5] is Calcium/calmodulin-dependent protein kinase type 1G (Homo sapiens) (UniProt Q96NX5). The assay is described as follows: Selectivity interaction (Kinase panel (DSF assay)) EUB0001559a CAMK1G.
The target in assay [6] is Mitogen-activated protein kinase kinase kinase 4 (Homo sapiens) (UniProt Q9Y6R4). The assay is described as follows: Selectivity interaction (KinomeScan (DiscoverX)) EUB0001619a MAP3K4. Conditions: at 1 µM.
Assay [7] has as its target Cyclin-dependent kinase 13 (Homo sapiens, UniProt Q14004). The assay is described as follows: Selectivity interaction (KinomeScan (DiscoverX)) EUB0001619a CDK13. Conditions: at 1 µM.

Chain of Chromatin remodeling regulator CECR2 (Q9BXF3 whole entry, looked up): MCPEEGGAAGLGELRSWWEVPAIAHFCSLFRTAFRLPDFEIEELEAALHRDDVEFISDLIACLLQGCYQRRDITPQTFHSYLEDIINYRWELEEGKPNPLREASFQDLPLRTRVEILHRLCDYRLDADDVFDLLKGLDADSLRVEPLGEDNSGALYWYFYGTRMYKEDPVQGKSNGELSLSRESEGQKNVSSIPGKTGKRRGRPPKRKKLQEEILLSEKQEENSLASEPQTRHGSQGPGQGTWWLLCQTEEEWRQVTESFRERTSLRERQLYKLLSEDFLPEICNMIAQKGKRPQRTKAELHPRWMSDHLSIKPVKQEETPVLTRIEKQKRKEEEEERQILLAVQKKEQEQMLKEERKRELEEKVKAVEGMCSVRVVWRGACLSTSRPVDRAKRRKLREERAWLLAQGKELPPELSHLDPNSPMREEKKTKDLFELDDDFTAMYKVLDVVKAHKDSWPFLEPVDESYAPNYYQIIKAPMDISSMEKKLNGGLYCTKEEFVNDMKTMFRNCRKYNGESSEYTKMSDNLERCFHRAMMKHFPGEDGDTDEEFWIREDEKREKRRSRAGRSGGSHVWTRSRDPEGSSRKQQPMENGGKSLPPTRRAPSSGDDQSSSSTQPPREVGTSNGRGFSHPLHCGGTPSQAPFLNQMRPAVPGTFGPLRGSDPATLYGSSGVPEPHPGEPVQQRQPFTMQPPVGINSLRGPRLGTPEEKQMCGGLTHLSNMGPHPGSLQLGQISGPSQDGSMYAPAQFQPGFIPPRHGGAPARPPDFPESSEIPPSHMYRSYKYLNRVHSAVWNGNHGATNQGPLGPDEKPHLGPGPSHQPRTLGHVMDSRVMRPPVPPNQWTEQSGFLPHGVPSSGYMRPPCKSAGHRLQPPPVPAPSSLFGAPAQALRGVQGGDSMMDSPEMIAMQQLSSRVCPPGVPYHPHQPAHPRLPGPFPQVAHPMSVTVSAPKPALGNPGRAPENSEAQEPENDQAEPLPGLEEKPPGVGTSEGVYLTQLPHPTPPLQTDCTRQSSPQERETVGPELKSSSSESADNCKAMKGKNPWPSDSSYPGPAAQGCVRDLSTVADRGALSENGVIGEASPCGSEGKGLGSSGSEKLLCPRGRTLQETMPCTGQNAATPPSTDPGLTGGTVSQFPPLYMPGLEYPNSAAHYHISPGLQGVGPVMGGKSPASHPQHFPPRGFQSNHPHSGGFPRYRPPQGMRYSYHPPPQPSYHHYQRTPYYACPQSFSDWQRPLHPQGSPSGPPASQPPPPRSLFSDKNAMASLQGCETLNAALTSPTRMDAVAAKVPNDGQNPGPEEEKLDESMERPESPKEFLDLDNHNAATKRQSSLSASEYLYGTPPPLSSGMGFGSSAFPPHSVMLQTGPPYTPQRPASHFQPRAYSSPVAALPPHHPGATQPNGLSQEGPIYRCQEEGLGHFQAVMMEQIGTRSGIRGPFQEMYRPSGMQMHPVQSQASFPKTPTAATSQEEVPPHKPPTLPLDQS
Chain of Mitogen-activated protein kinase kinase kinase 4 (Homo sapiens) (Q9Y6R4 whole entry): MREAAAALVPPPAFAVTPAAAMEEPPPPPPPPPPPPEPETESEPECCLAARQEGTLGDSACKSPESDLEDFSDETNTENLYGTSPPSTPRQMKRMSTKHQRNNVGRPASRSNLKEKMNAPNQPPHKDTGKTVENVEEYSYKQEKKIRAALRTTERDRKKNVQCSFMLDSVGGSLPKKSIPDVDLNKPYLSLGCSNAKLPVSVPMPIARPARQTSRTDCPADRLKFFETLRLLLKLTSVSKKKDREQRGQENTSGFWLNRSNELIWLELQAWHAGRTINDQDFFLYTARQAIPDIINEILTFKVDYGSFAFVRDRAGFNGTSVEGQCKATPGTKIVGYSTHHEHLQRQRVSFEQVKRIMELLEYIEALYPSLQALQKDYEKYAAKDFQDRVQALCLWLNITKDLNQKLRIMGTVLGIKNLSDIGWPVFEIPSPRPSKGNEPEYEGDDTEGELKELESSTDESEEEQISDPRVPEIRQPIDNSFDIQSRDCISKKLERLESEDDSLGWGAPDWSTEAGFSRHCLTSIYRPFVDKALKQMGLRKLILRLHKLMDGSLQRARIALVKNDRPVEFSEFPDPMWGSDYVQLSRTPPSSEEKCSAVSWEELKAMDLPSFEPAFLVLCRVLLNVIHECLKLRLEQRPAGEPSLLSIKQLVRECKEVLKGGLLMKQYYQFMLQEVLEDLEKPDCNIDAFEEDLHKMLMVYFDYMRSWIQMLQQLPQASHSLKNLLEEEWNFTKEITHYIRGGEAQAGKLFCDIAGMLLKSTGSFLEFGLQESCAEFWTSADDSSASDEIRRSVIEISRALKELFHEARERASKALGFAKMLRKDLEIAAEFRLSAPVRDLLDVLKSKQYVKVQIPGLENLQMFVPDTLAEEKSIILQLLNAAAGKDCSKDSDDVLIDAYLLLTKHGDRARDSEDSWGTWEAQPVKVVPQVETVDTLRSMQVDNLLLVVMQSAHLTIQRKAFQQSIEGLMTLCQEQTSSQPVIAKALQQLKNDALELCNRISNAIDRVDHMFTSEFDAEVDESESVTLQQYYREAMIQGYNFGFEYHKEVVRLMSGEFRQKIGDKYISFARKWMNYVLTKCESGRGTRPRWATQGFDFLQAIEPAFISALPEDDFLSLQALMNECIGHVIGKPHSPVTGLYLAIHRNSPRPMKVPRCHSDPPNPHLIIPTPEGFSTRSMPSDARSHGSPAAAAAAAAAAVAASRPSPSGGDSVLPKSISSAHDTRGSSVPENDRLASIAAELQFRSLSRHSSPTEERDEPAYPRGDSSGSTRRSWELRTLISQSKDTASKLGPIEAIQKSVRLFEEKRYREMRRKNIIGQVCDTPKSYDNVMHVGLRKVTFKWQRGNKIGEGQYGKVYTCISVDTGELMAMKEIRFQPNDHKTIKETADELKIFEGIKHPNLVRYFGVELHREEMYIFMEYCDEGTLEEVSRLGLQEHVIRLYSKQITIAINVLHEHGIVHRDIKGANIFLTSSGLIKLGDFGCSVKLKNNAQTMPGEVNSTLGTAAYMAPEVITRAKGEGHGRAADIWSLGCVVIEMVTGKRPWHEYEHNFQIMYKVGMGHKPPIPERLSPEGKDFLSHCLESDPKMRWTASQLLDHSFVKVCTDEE
Chain of Cyclin-dependent kinase 13 (Q14004 whole entry, looked up): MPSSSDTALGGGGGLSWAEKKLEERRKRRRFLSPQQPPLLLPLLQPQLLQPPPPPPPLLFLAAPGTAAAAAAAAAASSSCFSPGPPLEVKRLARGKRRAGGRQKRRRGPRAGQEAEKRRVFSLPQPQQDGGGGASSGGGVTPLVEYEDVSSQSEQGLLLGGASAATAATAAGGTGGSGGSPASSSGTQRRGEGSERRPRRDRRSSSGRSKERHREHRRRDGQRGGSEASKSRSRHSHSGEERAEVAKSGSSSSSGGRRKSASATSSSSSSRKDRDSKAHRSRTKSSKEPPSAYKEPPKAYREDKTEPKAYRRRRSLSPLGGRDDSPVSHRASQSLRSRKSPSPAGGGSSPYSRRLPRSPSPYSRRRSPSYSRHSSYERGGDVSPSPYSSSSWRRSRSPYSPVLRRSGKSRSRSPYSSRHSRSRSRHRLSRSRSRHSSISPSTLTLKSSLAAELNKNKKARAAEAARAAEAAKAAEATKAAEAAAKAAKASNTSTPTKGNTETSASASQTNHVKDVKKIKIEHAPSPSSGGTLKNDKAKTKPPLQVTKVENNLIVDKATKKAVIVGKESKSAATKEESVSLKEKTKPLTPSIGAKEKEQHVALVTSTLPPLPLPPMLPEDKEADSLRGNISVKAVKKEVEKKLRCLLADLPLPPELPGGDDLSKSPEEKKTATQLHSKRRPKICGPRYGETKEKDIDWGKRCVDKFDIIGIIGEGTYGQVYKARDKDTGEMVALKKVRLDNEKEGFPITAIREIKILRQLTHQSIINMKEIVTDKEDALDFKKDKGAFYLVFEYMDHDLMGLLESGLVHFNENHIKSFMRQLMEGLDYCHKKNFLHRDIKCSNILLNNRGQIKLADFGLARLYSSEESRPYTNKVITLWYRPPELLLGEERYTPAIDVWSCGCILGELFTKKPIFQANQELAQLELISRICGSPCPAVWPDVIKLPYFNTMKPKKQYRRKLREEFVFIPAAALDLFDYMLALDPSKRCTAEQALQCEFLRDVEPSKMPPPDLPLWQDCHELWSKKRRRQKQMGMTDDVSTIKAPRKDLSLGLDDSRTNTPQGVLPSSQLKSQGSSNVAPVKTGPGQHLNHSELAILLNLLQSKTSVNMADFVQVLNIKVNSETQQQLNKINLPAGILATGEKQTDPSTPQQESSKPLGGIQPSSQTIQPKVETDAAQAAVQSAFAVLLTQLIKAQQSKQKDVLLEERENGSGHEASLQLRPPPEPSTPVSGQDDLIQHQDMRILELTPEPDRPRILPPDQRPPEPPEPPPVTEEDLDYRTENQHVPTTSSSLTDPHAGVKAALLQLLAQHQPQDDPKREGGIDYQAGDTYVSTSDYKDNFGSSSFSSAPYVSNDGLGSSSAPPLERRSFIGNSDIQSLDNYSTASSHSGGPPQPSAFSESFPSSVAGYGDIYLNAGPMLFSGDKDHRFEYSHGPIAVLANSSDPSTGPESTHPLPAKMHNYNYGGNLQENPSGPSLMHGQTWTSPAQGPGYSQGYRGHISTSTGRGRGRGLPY
Chain of Calcium/calmodulin-dependent protein kinase type 1G (Homo sapiens) (Q96NX5 whole entry): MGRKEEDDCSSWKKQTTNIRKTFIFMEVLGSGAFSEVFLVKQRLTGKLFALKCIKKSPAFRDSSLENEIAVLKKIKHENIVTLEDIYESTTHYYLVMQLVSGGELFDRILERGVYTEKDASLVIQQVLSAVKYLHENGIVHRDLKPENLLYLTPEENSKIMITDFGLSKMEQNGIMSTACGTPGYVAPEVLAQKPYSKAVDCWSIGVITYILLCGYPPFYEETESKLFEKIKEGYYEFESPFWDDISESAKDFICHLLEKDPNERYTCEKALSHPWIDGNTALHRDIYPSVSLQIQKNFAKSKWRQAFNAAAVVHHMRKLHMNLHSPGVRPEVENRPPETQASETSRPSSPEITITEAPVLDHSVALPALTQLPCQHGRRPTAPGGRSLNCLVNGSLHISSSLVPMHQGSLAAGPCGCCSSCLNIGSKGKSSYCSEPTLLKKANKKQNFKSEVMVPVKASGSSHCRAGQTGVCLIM

In assay [1], `CN(C)C/C=C/C(=O)Nc1ccc(C(=O)N2CCCC(Nc3ncc(Cl)c(-c4c[nH]c5ccccc45)n3)C2)cc1` (configuration not stated) yielded a % of control of 100%.
The compound `Cc1cc(F)c(C(=O)Nc2cccc(-c3nncn3C(C)C)n2)cc1-n1cnc(C2CC2)c1` displayed a % of control in assay [2] of 79%.
For the compound `CN(C)CCCOc1ccc(-c2cc(NCCCn3cccn3)nc(S(C)(=O)=O)n2)cc1`, in assay [3], the dTM worked out at 11.1 K.
On to `CN(C(=O)c1cnn2cccnc12)c1cc2c(cc1N1CCOCC1)C(=O)N(C[C@@H](F)C(C)(C)O)C2`, for which the values for the dTM in assay [4] and in assay [5] were 0.4 K and -0.6 K, respectively.
With `N#Cc1cccc(-c2c[nH]c3ncnc(N4CCOCC4)c23)c1`, the % of control in assay [6] and in assay [7] was 100% each time.
